The target in data set [1] is T1, ARM domain of HSF2BP (Homo sapiens, UniProt O75031).
T1 construct: The armadillo domain of HSF2BP, from aa 122 to aa 334; 6xHis-TEV (N, cleaved yes); made in house; host or cells: E. coli BL21 DE3 Rosetta2
T1 sequence (O75031 122-334): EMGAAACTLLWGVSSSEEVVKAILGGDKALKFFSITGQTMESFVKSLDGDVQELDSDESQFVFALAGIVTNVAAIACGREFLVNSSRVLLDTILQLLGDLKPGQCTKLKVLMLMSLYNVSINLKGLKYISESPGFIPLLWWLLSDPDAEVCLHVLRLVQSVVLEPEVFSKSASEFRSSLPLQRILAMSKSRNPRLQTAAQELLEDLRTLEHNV
Put plainly: ITC of BRCA2 fragments with HSF2BP armadillo domain. The data set is classed as binding. The conditions noted are these: for n (stoichiometry) / ΔG / −TΔS / ΔH (±error): 293 K; for affinity relative to F0: compared with the affinity measured between ARM and F0. The source says: Human full-length HSF2BP WT and R200T were expressed using a pETM11 (6xHis-TEV) expression vector in E. coli BL21 DE3 Rosetta2 cells, and purified as previously reported (Brandsma et al., Cell Rep 2019). The armadillo domain of HSF2BP, from aa 122 to aa 334, which we will further name ARM, was similarly expressed using a pETM11 (6xHis-TEV) expression vector in BL21 DE3 Rosetta2 cells and purified as full-length HSF2BP.
Human BRCA2 fragment F0 was expressed using a pET-22b expression vector as a fusion protein comprising BRCA2 from aa 2213 to aa 2342 (including mutation C2332T to avoid oxidation problems), a TEV site, a GB1 and 6xHis tag, in E. coli BL21 DE3 Star cells. The BRCA2 gene was optimized for expression in bacteria and synthesized by Genscript. In addition, smaller BRCA2 fragments were produced using the same strategy: FNMR and F15X corresponding to aa 2252 to aa 2342 and aa 2291 to aa 2343, respectively. The smallest fragment F15X∆12, from aa 2312 to aa 2342, was synthesized by Genecust.
ITC experiments were performed using a high-precision VP-ITC instrument (GE Healthcare) at 293 K. To characterize the interactions between HSF2BP and BRCA2 fragments (WT, variants), the proteins were dialyzed against 25 mM Tris pH 7.5, 250 mM NaCl, 5 mM β-mercaptoethanol. The HSF2BP (or ARM domain) was in the sample cell at 10–20 μM and was titrated by BRCA2 fragments at 40–100 μM, using 10 μL injections with 210 s intervals between each injection. The first 2 μL injection was ignored in the final data analysis. The integration of the peaks corresponding to each injection. the correction for the baseline and the fit were performed using the Origin 7.0 software provided by the manufacturer, to obtain the stoichiometry (N), dissociation constant (Kd), and enthalpy of complex formation (ΔH) for each interaction. Two replicates were performed for each experiment.

The target in data set [2] is T1, ARM domain of HSF2BP. The data set can be described thus: SEC-SAXS of ARM bound to F15X. The data set is classed as physicochemical. The method, then:
SEC coupled to SAXS is available on the SWING beamline at synchrotron SOLEIL, in order to obtain a distance distribution corresponding to each sample in solution. The free HSF2BP protein as well as the complex between ARM and F15X were analyzed using a Bio SEC-3 column (Agilent) equilibrated in 25 mM Tris-HCl buffer, pH 7.5, 250 mM NaCl, and 5 mM β-mercaptoethanol. The proteins were loaded at a concentration of 6 and 10 mg/ml, in order to observe an elution peak at an OD280nm of 1 and 1.2 AU, respectively.
On the technique in general: SEC sorts molecules by how far they enter the pores of the column.

For data set [3], the target named is T1, ARM domain of HSF2BP. Put plainly: SEC-MALS of ARM free or bound to F15X. The data set is classed as physicochemical. The method, then: Size-exclusion chromatography (SEC) coupled to MALS was used in order to measure the molecular masses of the complexes in solution. Therefore, HSF2BP and ARM proteins were loaded in the presence and absence of the BRCA2 fragment F15X on a Superdex 200 10/300 GL (GE Healthcare) using a HPLC Shimadzu system coupled to MALS/QELS/UV/RI (Wyatt Technology). The chromatography buffer was 25 mM Tris-HCl buffer, pH 7.5, 250 mM NaCl, 5 mM β-mercaptoethanol. The proteins were injected at 0.8–1 mg/ml in 100 μl. Data were analyzed using the ASTRA software; a calibration was performed with BSA as a standard.

The target in data set [4] is T1, ARM domain of HSF2BP. The data set can be described thus: 2D NMR 1H-15N HSQC of 15N-labeled F0 with ARM. The data set is classed as binding. The conditions noted are these: 15N-F0 100 μM, ARM 1:1, 950 MHz, 283 K; peaks of S2252-Q2342. The method, then:
For NMR analysis, ^15N-labeled or ^15N- and ^13C-labeled BRCA2 fragments were produced in E. coli BL21 DE3 Star cells grown in M9 medium containing either 0.5 g/l ^15NH4Cl or 0.5 g/l ^15NH4Cl and 2 g/l ^13C-glucose, respectively. […]
The ^15N/^13C-labeled F0 fragment was analyzed by 3D heteronuclear NMR. in order to assign its Hn, N, Cα, Cβ, and Co chemical shifts, and identify its binding site to HSF2BP. Therefore, 3D NMR HNCA, CBCACONH, HNCACB, HNCANNH, HNCO, and HNCACO experiments were performed on a 700 MHz Bruker AVANCE NEO spectrometer equipped with a triple resonance cryogenic TCI probe at 283 K. The data were processed using Topspin 4.0 (Bruker) and analyzed using CCPNMR 2.4[49]. […] For binding studies, 2D NMR ^1H-^15N HSQC experiments were recorded on a 3-mm-diameter sample tube containing the ^15N-labeled F0 at 100 μM in the absence and presence of the ARM domain at 100 μM, on a 950 MHz Bruker Avance III spectrometer equipped with a triple resonance cryogenic TCI probe at 283 K.

Where [5] appears, read: pH 7.5, expt 1, error in brackets.
[6] abbreviates: pH 7.5, expt 2, error in brackets.

Consider `CC[C@H](C)[C@H](NC(=O)[C@H](CCCNC(=N)N)NC(=O)[C@H](CC(=O)O)NC(=O)[C@H](Cc1ccccc1)NC(=O)[C@H](CCC(=O)O)NC(=O)[C@@H](N)CC(N)=O)C(=O)N[C@H](C(=O)N[C@@H](CCC(=O)O)C(=O)N[C@@H](CC(N)=O)C(=O)N[C@@H](CCC(N)=O)C(=O)N[C@@H](CCC(=O)O)C(=O)N[C@@H](CCCCN)C(=O)N[C@@H](CO)C(=O)N[C@@H](CC(C)C)C(=O)N[C@@H](CCCCN)C(=O)N[C@@H](C)C(=O)N[C@@H](CO)C(=O)N[C@@H](CCCCN)C(=O)N[C@@H](CO)C(=O)N[C@H](C(=O)N1CCC[C@H]1C(=O)N[C@@H](CC(=O)O)C(=O)NCC(=O)N[C@H](C(=O)N[C@H](C(=O)N[C@@H](CCCCN)C(=O)N[C@@H](CC(=O)O)C(=O)N[C@@H](CCCNC(=N)N)C(=O)N[C@@H](CCCNC(=N)N)C(=O)N[C@@H](CC(C)C)C(=O)N[C@@H](Cc1ccccc1)C(=O)N[C@@H](CCSC)C(=O)N[C@@H](Cc1c[nH]cn1)C(=O)N[C@@H](Cc1c[nH]cn1)C(=O)N[C@H](C(=O)N[C@@H](CO)C(=O)N[C@@H](CC(C)C)C(=O)N[C@@H](CCC(=O)O)C(=O)N1CCC[C@H]1C(=O)N[C@H](C(=O)N[C@H](C(=O)N[C@H](C(=O)N[C@H](C(=O)N1CCC[C@H]1C(=O)N[C@@H](Cc1ccccc1)C(=O)N[C@@H](CCCNC(=N)N)C(=O)N[C@H](C(=O)N[C@H](C(=O)N[C@@H](CCCCN)C(=O)N[C@@H](CCC(=O)O)C(=O)N[C@@H](CCCNC(=N)N)C(=O)N[C@@H](CCC(N)=O)C(=O)N[C@@H](CCC(=O)O)C(=O)O)[C@@H](C)O)[C@@H](C)O)C(C)C)[C@@H](C)O)[C@@H](C)O)[C@@H](C)CC)C(C)C)[C@@H](C)CC)[C@@H](C)O)[C@@H](C)O)[C@@H](C)CC` [F15X], for which, on ARM domain of HSF2BP [1] (pH 7.5, expt 1), the “n (stoichiometry)” value was 0.33, the ΔG was -10.6 kcal/mol and the “−TΔS” value was -0.4 kcal/mol. In addition, at ARM domain of HSF2BP [1] (setting [5]), the “ΔH (±error)” value was −10.2 (0.1) kcal/mol. At ARM domain of HSF2BP [1] (pH 7.5, expt 2), the “n (stoichiometry)” value was 0.40, the ΔG is -10.7 kcal/mol and the “−TΔS” value is -1.5 kcal/mol. For the same molecule, the “ΔH (±error)” value on ARM domain of HSF2BP [1] (setting [6]) was −9.2 (0.1) kcal/mol. Besides, at ARM domain of HSF2BP [1], the “affinity relative to F0” value is listed as “about threefold higher”. For the same molecule, at ARM domain of HSF2BP [2], the “Dmax of complex with ARM” value stood at 104 Å and the “Rg of complex with ARM” value was 34 Å. Besides, the “molecular weight of complex with ARM” value at ARM domain of HSF2BP [2] (Bio SEC-3, 25 mM Tris-HCl pH 7.5, 250 mM NaCl, theoretical mass of four ARM bound to two F15X 108 kDa) is given as 109 kDa. Also, the “oligomeric state of ARM” value on ARM domain of HSF2BP [3] (SEC-MALS and SEC-SAXS) was “tetrameric”. On ARM domain of HSF2BP [3] (SEC-MALS, Superdex 200 10/300 GL, 25 mM Tris-HCl pH 7.5, 250 mM NaCl, 5 mM β-mercaptoethanol), the “molecular weight of species in solution” value worked out at 94 kDa.

B1: FNMR: BRCA2 fragment aa 2252 to aa 2342, recombinant (protein)
chain: SLFTCPENEEMVLSNSRIGKRRGEPLILVGEPSIKRNLLNEFDRIIENQEKSLKASKSTPDGTIKDRRLFMHHVSLEPITTVPFRTTKERQ
modifications: left off: GB1, C-terminal, cleaved | His6, C-terminal, cleaved
notes: BRCA2 fragment aa 2252 to aa 2342, recombinant
As to B1, the ΔG with ARM domain of HSF2BP [1] (pH 7.5, expt 1) is -10.8 kcal/mol; with ARM domain of HSF2BP [1] (pH 7.5, expt 2), -10.5 kcal/mol. In addition, the “−TΔS” value in the data set with ARM domain of HSF2BP [1] (pH 7.5, expt 1) was -1.2 kcal/mol; in the data set with ARM domain of HSF2BP [1] (pH 7.5, expt 2), -1.1 kcal/mol. Moreover, the results for the “ΔH (±error)” value with ARM domain of HSF2BP [1] (setting [5]) and in the data set with ARM domain of HSF2BP [1] (setting [6]) were −9.6 (0.1) kcal/mol and −9.4 (0.2) kcal/mol, respectively. Also, the “affinity relative to F0” value with ARM domain of HSF2BP [1] is reported as “about threefold higher”. Also, in the data set with ARM domain of HSF2BP [4], the “decrease of HSQC peak intensities” value is on record as “more than 60%”.

The values are drawn from paper PMC8322138, “BRCA2 binding through a cryptic repeated motif to HSF2BP oligomers does not impact meiotic recombination” (Nature Communications, 2021).
